Source: patent publication US10253023B2, “Heteroaryl compounds as BTK inhibitors and uses thereof” (Merck Patent GmbH, priority 2014, dated 2019)

Biological target: T1, BTK C481S (Homo sapiens, UniProt Q06187, C481S)
T1 construct: His-TEV-hsBTK(328-659)(C481S) from the Merck Serono Protein Purification Laboratory; His (N); TEV (protease cleavage site) (N)
Experiment: Assay B: Microfluidic Off-Chip Mobility Shift Assay against BTK C481S enzyme
Assay type: biochemical
Conditions: His-TEV-hsBTK(328-659)(C481S), 90 min, 25° C
Source text: Assay B: Microfluidic Off-Chip Mobility Shift Assay Protocol for Potency Assessment Against BTK C481S Enzyme The protocol below describes a microfluidic, off-chip mobility shift kinase assay to measure inherent potency of compounds against BTK C481S enzyme. The mechanics of the assay platform are described by the vendor (PerkinElmer, Hopkinton, Mass.) on their website at the following URL: […].com. Briefly, 2.5× stocks of His-TEV-hsBTK(328-659)(C481S) from the Merck Serono Protein Purification Laboratory in Darmstadt, Germany (PCS, […]/234), 1.6×ATP and appropriate […] peptide substrate (FITC-AHA-[…]-NH2; Tufts University Core Facility custom synthesis) were prepared in kinase reaction buffer consisting of 25 mM MgCl2, 0.015% Brij-35 (30%), 100 mM HEPES, pH 7.5, and 10 mM DTT. […] Terminated reactions were monitored at -2 PSI, -3000 V/-700 Volts in a LabChip 3000 plate reader from Caliper Life Sciences, a PerkinElmer Company (Hopkinton, Mass.), and the activity was quantified by laser-induced fluorescence measuring the charge/mass difference between substrate and product resulting from peptide phosphorylation. IC50 and efficacy were determined by plotting log [Inhibitor] vs. % Activity in GeneData Screener (Basel, Switzerland).

T1 sequence (Q06187 328-659 C481S): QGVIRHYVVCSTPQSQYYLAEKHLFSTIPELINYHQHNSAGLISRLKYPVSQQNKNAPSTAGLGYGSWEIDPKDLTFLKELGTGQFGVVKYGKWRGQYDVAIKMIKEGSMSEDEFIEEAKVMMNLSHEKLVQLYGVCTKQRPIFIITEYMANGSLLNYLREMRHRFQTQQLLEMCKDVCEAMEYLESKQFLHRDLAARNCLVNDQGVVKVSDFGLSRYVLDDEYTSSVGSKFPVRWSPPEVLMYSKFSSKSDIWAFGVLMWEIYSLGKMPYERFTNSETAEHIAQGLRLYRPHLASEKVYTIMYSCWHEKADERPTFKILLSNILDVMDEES

IC50: < 100 nM
SMILES: CC(C)(C)c1noc(C(=O)NCc2ccc(-c3ccnc4[nH]c(-c5cnn(C6COC6)c5)nc34)cc2F)n1 [Example 128]
